The record followed here is US20230141433A1, “TRICYCLIC PESTICIDAL COMPOUNDS” (BASF SE, priority 2020, published 2023).

What all share (type): in vivo
The subject of assay [1] is tobacco budworm (Heliothis virescens). Description: Tobacco budworm (Heliothis virescens) egg and larval mortality, insect diet in 96-well microtiter plates. Particulars: 120 h, 5 days, read-out: mortality in comparison with untreated controls (egg and larval mortality). The procedure: (§1) If not otherwise specified, the test solutions are prepared as follows: The active compound is dissolved at the desired concentration in a mixture of 1:1 (vol:vol) distilled water:acetone. The test solution is prepared at the day of use. Test solutions are prepared in general at concentrations of 2500 ppm, 1000 ppm, 800 ppm, 500 ppm, 300 ppm, 100 ppm and 30 ppm (wt/vol).
Tobacco Budworm (Heliothis virescens)
For evaluating control of tobacco budworm (Heliothis virescens) the test unit consisted of 96-well-microtiter plates containing an insect diet and 15-25 H. virescens eggs. The compounds were formulated using a solution containing 75% v/v water and 25% v/v DMSO. Different concentrations of formulated compounds were sprayed onto the insect diet at 10 μl, using a custom built micro atomizer, at two replications. After application, microtiter plates were incubated at about 28±1° C. and about 80±5% relative humidity for 5 days. Egg and larval mortality was then visually assessed.

The test system of assay [2] is vetch aphid (Megoura viciae). Description: Vetch aphid (Megoura viciae) contact or systemic test on broad bean leaf disks. Particulars: foliar, 120 h, 5 days, read-out: mortality in comparison with untreated controls (aphid mortality). The procedure: as §1
Vetch Aphid (Megoura viciae)
For evaluating control of vetch aphid (Megoura viciae) through contact or systemic means the test unit consisted of 24-well-microtiter plates containing broad bean leaf disks.
The compounds were formulated using a solution containing 75% v/v water and 25% v/v DMSO. Different concentrations of formulated compounds were sprayed onto the leaf disks at 2.5 μl, using a custom built micro atomizer, at two replications. After application, the leaf disks were air-dried and 5-8 adult aphids placed on the leaf disks inside the microtiter plate wells. The aphids were then allowed to suck on the treated leaf disks and incubated at about 23±1° C. and about 50±5% relative humidity for 5 days. Aphid mortality and fecundity was then visually assessed.

Assay [3] relates to boll weevil (Anthonomus grandis). Description: Boll weevil (Anthonomus grandis) egg and larval mortality, insect diet in 96-well microtiter plates. The following applies: 120 h, 5 days, read-out: mortality in comparison with untreated controls (egg and larval mortality). The procedure:
as §1
Boll Weevil (Anthonomus grandis)
For evaluating control of boll weevil (Anthonomus grandis) the test unit consisted of 96-well-microtiter plates containing an insect diet and 5-10 A. grandis eggs. The compounds were formula ted using a solution containing 75% v/v water and 25% v/v DMSO. Different concentrations of formulated compounds were sprayed onto the insect diet at 5 μl, using a custom built micro atomizer, at two replications. After application, microtiter plates were incubated at about 25±1° C. and about 75±5% relative humidity for 5 days. Egg and larval mortality was then visually assessed.

The subject of assay [4] is yellow fever mosquito (Aedes aegypti). Description: whole plant or invertebrate. Particulars: 48 h, 2 days, read-out: mortality in comparison with untreated controls (larval mortality). The procedure:
as §1
Yellow Fever Mosquito (Aedes aegypti)
For evaluating control of yellow fever mosquito (Aedes aegypti) the test unit consisted of 96-well-microtiter plates containing 200 μl of tap water per well and 5-15 freshly hatched A. aegypti larvae. The active compounds were formulated using a solution containing 75% (v/v) water and 25% (v/v) DMSO. Different concentrations of formulated compounds or mixtures were sprayed onto the insect diet at 2.5 μl, using a custom built micro atomizer, at two replications. After application, microtiter plates were incubated at 28±1° C., 80±5% RH for 2 days. Larval mortality was then visually assessed.

Assay [5] concerns green peach aphid (Myzus persicae). Description: Green peach aphid (Myzus persicae) systemic test, artificial diet under membrane. The following applies: 72 h, 3 days, read-out: mortality in comparison with untreated controls (aphid mortality). The procedure:
as §1
Green Peach Aphid (Myzus persicae) For evaluating control of green peach aphid (Myzus persicae) through systemic means the test unit consisted of 96-well-microtiter plates containing liquid artificial diet under an artificial membrane. The compounds were formulated using a solution containing 75% v/v water and 25% v/v DMSO. Different concentrations of formulated compounds were pipetted into the aphid diet, using a custom built pipetter, at two replications. After application, 5-8 adult aphids were placed on the artificial membrane inside the microtiter plate wells. The aphids were then allowed to suck on the treated aphid diet and incubated at about 23±1° C. and about 50±5% relative humidity for 3 days. Aphid mortality and fecundity was then visually assessed.

A value given as a limit tells only on which side of the number the result lay.

For the compound `CCS(=O)(=O)c1c(-c2nc3cnc4c(OC(F)(F)F)cccc4c3n2C)nc2ccc(C(F)(F)F)cn12` [C-1], the mortality at 2500 ppm in assay [1], in assay [2], in assay [3] and in assay [5] was above 75% in each case. For the same compound, the mortality – broadly, the percentage killed – at 800 ppm in assay [4] was at least 75%.
Take `CCS(=O)(=O)c1c(-c2nc3cnc4c(C(F)(F)F)cccc4c3n2C)nc2ccc(C(F)(F)F)cn12` [C-2]: the mortality at 2500 ppm in assay [1], in assay [2], in assay [3] and in assay [5] was above 75% each time. In addition, the mortality at 800 ppm in assay [4] is at least 75%.
On to `CCS(=O)(=O)c1c(-c2nc3cnc4c(C(F)(F)F)cccc4c3n2C)nc2ccccn12` [C-3], for which the mortality at 2500 ppm in assay [1], in assay [2], in assay [3] and in assay [5] was above 75% each time. Besides, the mortality at 800 ppm in assay [4] is at least 75%.
As for `CCS(=O)(=O)c1c(-c2nc3cnc4c(OC(F)(F)F)cccc4c3n2C)nc2ccccn12` [C-4, 2-(3-ethylsulfonylimidazo[1,2-a]pyridin-2-yl)-1-methyl-6-(trifluoromethoxy)imidazo[4,5-c]quinoline], the mortality at 2500 ppm in assay [1], in assay [2], in assay [3] and in assay [5] was above 75% each time. In addition, the mortality at 800 ppm in assay [4] is at least 75%.
Take `CCS(=O)(=O)c1c(-c2nc3cnc4cc(C(F)(F)F)ccc4c3n2C)nc2ccccn12` [C-6]: the mortality at 2500 ppm in assay [1] and in assay [3] was above 75% in each case.
For `CCS(=O)(=O)c1c(-c2cn3c(ccc4c(C(F)(F)F)ccnc43)n2)nc2ccccn12` [C-7, 8-(3-ethylsulfonylimidazo[1,2-a]pyridin-2-yl)-4-(trifluoromethyl)imidazo[1,2-a][1,8]naphthyridine], the mortality at 2500 ppm in assay [1], in assay [3] and in assay [5] was above 75% each time. Further, the mortality at 800 ppm in assay [4] was at least 75%.
`CCS(=O)(=O)c1c(-c2cn3c(ccc4c(C(F)(F)F)cc(C(F)(F)F)nc43)n2)nc2ccc(C(F)(F)F)cn12` [C-8]: the mortality at 800 ppm in assay [1] and in assay [3] was above 75% throughout.
With `CCS(=O)(=O)c1c(-c2cn3c(ccc4c(C(F)(F)F)ccnc43)n2)nc2ccc(C(F)(F)F)cn12` [C-9], the mortality at 800 ppm was above 75% in assay [1], above 75% in assay [3], at least 75% in assay [4] and above 75% in assay [5].
`CCS(=O)(=O)c1c(-c2cn3c(ccc4c(C(F)(F)F)ccnc43)n2)nn2ccccc12` [C-10]: the mortality at 800 ppm in assay [3] and in assay [5] was above 75% throughout.
For the compound `CCS(=O)(=O)c1c(-c2nc3cc(C(F)(F)F)c4ncccc4c3n2C)nc2ccccn12` [C-11, 2-(3-ethylsulfonylimidazo[1,2-a]pyridin-2-yl)-1-methyl-5-(trifluoromethyl)imidazo[4,5-f]quinoline], the mortality at 800 ppm in assay [1], in assay [3] and in assay [5] was above 75% each time.
`CCS(=O)(=O)c1c(-c2nc3cnc4c(C(F)(F)F)cccc4c3n2C)nc2n1CCCC2` [C-12]: the mortality at 800 ppm in assay [1] was above 75%; in assay [3] it was above 75%; in assay [4] it was at least 75%; in assay [5], above 75%.
Regarding `CCS(=O)(=O)c1c(-c2nc3cnc4cc(OC(F)(F)F)ccc4c3n2C)nc2n1CCCC2` [C-14], the mortality at 800 ppm in assay [1] and in assay [5] was above 75% each time.
With `CCS(=O)(=O)c1c(-c2nc3cnc4cc(OC(F)(F)F)ccc4c3n2C)nc2ncccn12` [C-15], the mortality at 800 ppm in assay [5] is above 75%.
For `CCS(=O)(=O)c1c(-c2nc3cnc4c(C(F)(F)F)cccc4c3n2C)nc2ncccn12` [C-16], the mortality at 800 ppm in assay [5] was above 75%.
On to `CCS(=O)(=O)c1c(-c2nc3cnc4c(OC(F)(F)F)cccc4c3n2C)nc2ncccn12` [C-17], for which the mortality at 800 ppm in assay [5] is above 75%.
As to `CCS(=O)(=O)c1c(-c2nc3cnc4cc(C(F)(F)F)ccc4c3n2C)nc2ncccn12` [C-18], the mortality at 800 ppm in assay [1] is above 75%.
Consider `CCS(=O)(=O)c1c(-c2nc3cnc4c(C(F)(F)F)cccc4c3n2C)nn2ccccc12` [C-19], for which the mortality at 800 ppm in assay [1] was above 75%; in assay [3], above 75%; in assay [4] it was at least 75%; in assay [5], above 75%.
For `CCS(=O)(=O)c1c(-c2nc3cnc4cc(C(F)(F)F)ccc4c3n2C)nn2ccccc12` [C-20], the mortality at 800 ppm in assay [1] and in assay [3] was above 75% each time.
On to `CCS(=O)(=O)c1c(-c2nc3cnc4c(OC(F)(F)F)cccc4c3n2C)nn2ccc(C(C)(C)C#N)cc12` [C-22], for which the mortality at 800 ppm in assay [1], in assay [3] and in assay [5] was above 75% throughout.
In the case of `CCS(=O)(=O)c1c(-c2nc3cnc4cc(OC(F)(F)F)ccc4c3n2C)nn2ccc(C(C)(C)C#N)cc12` [C-23], the mortality at 800 ppm in assay [1] and in assay [3] was above 75% throughout.
In the case of `CCS(=O)(=O)c1c(-c2nc3cnc4cc(C(F)(F)F)ccc4c3n2C)nc2ccc(Br)cn12` [C-27], the mortality at 800 ppm was above 75% in assay [1], above 75% in assay [3] and at least 75% in assay [4].
Take `CCS(=O)(=O)c1c(-c2nc3cnc4c(C(F)(F)F)cccc4c3n2C)nc2ccc(Br)cn12` [C-28]: the mortality at 800 ppm in assay [1] was above 75%; in assay [3] it was above 75%; in assay [4], at least 75%; in assay [5] it was above 75%.
`CCS(=O)(=O)c1c(-c2nc3cnc4cc(OC(F)(F)F)ccc4c3n2C)nn2ccccc12` [C-29]: the mortality at 800 ppm in assay [1] is above 75%; in assay [3], above 75%; in assay [4] it was at least 75%; in assay [5], above 75%.
